In US20090181950A1, “Histamine Receptor Antagonists Comprising an Azepin Core” (GLAXO GROUP LIMITED, priority 2006, published 2009):
Structures can show the parent of a compound that is named as a salt.

What was measured:
[1] = CNS penetration by bolus administration; assay type: in vivo, male CD Sprague Dawley rats; settings: 1 mg/kg intravenously, blood and brain at 5 min post-dose
Procedure: Compounds are dosed intravenously at a nominal dose level of 1 mg/kg to male CD Sprague Dawley rats. Compounds are formulated in 5% DMSO/45% PEG200/50% water. Blood samples are taken under terminal anaesthesia with isoflurane at 5 min post-dose and the brains are also removed for assessment of brain penetration. Blood samples are taken directly into heparinised tubes. Blood samples are prepared for analysis using protein precipitation and brain samples are prepared using extraction of drug from brain by homogenisation and subsequent protein precipitation. The concentration of parent drug in blood and brain extracts is determined by quantitative LC-MS/MS analysis using compound-specific mass transitions.

human H1 receptor = biological target: T1, human H1 receptor (Homo sapiens, UniProt P35367); assay: Histamine H1 functional antagonist assay (FLIPR): antagonist pA2; assay type: cell-based
T1 construct: expressed in transfected cells
Procedure: The human H1 receptor is cloned using known procedures described in the literature [Biochem. Biophys. Res. Commun., 201(2):894 (1994)]. Chinese hamster ovary (CHO) cells stably expressing the human H1 receptor are generated according to known procedures described in the literature [Br. J. Pharmacol., 117(6):1071 (1996)].
The histamine H1 receptor expressing CHO cells are seeded into non-coated black-walled clear bottom 96-well tissue culture plates as described above.
Following overnight culture, growth medium is removed from each well, washed with 200 μl phosphate buffered saline (PBS) and is replaced with 50 μl loading dye (250 μM Brilliant Black, 1 μM Fluo-4 diluted in Tyrodes buffer+probenecid (145 mM NaCl, 2.5 mM KCl, 10 mM HEPES, 10 mM D-glucose, 1.2 mM MgCl2, 1.5 mM CaCl2, 2.5 mM probenecid, pH adjusted to 7.40 with NaOH 1.0 M)). Cells are incubated for 45 min at 37° C. The loading buffer is removed and the cells are washed as above, and 90 μl of Tyrodes buffer+probenecid is added to each well. 10 μl of test compound, diluted to the required concentration in Tyrodes buffer+probenecid (or 10 μl Tyrodes buffer+probenecid as a control) is added to each well and the plate is incubated for 30 min at 37° C., 5% CO2.
The plates are then placed into a FLIPR™ (Molecular Devices, UK) to monitor cell fluorescence (λex=488 nm, λEM=540 nm) in the manner described in Sullivan et al., (In: Lambert DG (ed.), Calcium Signaling Protocols, New Jersey: Humana Press, 1999, 125-136) before and after the addition of 50 μl histamine over a concentration range of 1 mM-0.1 nM. The resultant concentration response curves are analysed by non-linear regression using a standard four parameter logistic equation to determine the histamine EC50, the concentration of histamine required to produce a response of 50% of the maximum response to histamine. The antagonist pA2 is calculated using the following standard equation: pA2=log(DR−1)−log[B] where DR=dose ratio, defined as EC50antagonist-treated/EC50control and [B]=concentration of antagonist.

T1 sequence (P35367 whole entry): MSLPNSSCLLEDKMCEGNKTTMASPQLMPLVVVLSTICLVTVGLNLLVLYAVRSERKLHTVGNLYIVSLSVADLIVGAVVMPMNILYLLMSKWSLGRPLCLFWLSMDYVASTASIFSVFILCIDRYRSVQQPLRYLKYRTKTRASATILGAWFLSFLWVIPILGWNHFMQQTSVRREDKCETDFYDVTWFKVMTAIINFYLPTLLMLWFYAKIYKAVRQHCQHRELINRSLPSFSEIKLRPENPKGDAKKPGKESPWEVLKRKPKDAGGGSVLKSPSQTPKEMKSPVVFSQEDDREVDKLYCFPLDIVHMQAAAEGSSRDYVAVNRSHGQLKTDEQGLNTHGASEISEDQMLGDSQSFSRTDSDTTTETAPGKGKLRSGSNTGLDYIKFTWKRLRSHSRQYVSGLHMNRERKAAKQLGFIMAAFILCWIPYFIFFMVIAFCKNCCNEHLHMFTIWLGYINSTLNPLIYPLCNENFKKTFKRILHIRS

With `O=C(O)CCc1ccc2cc(Cc3ccccc3)cc(N3CCN(CCc4ccc(OCCCN5CCCCCC5)cc4)CC3)c2n1` [Example 1, 3-[8-{4-[2-(4-{[3-(Hexahydro-1H-azepin-1-yl)propyl]oxy}phenyl)ethyl]-1-piperazinyl}-6-(phenylmethyl)-2-quinolinyl]propanoic Acid, Formate Salt] the CNS penetration [1] was “low CNS penetration” and the Kb (human H1 receptor) was < 10 nM.

In the case of `CCc1cc(N2CCN(CCc3ccc(OCCCN4CCCCCC4)cc3)CC2)c2nc(CCC(=O)O)ccc2c1` [Example 2, 3-(6-Ethyl-8-{4-[2-(4-{[3-(hexahydro-1H-azepin-1-yl)propyl]oxy}phenyl)ethyl]-1-piperazinyl}-2-quinolinyl)propanoic Acid, Formate Salt], the CNS penetration [1] is reported as “low CNS penetration” and the Kb (human H1 receptor) is reported as < 10 nM.

For `O=C(O)CCc1ccc2cccc(N3CCN(CCc4ccc(OCCCN5CCCCCC5)cc4)CC3)c2n1` [Example 3, 3-(8-{4-[2-(4-{[3-(Hexahydro-1H-azepin-1-yl)propyl]oxy}phenyl)ethyl]-1-piperazinyl}-2-quinolinyl)propanoic Acid, Formic Acid (1:2)], the CNS penetration [1] was “low CNS penetration” and the Kb (human H1 receptor) was < 10 nM.

For `O=C(O)CCc1cnc2c(N3CCN(CCc4ccc(OCCCN5CCCCCC5)cc4)CC3)cccc2c1` [Example 5, 3-(8-{4-[2-(4-{[3-(hexahydro-1H-azepin-1-yl)propyl]oxy}phenyl)ethyl]-1-piperazinyl}-3-quinolinyl)propanoic Acid, Formic Acid Salt], the Kb (human H1 receptor) was < 100 nM.

For `CCCCc1cc(N2CCN(CCc3ccc(OCCCN4CCCCCC4)cc3)CC2)c2nc(CCC(=O)O)ccc2c1` [Example 6, 3-(6-Butyl-8-{4-[2-(4-{[3-(hexahydro-1H-azepin-1-yl)propyl]oxy}phenyl)ethyl]-1-piperazinyl}-2-quinolinyl)propanoic Acid, Formate Salt], the Kb (human H1 receptor) was < 10 nM.
